Experimental data reported in EP0000322A1, “Compounds having an anti-depressive or tranquilizing activity, pharmaceutical compositions containing them, and processes and intermediates for their preparation” (priority 1977, dated 1979).
Where a name gives a salt, the structure may show the parent alone. Read-outs that look alike come from different tables or passages of the source.

How the values were obtained:
[1] = system: neuronal uptake of 5-hydroxytryptamine and noradrenaline; assay: Overall assessment of the uptake tests (selectivity NA versus 5-HT); parameters: species or system mouse; settings: summary of the results of Table I
[2] = system: neuronal uptake of noradrenaline; assay: Inhibition of the uptake of 3H-NA in brain slices after in vivo (i.p.) administration; parameters: species or system mice; settings: for ED50: Mus musculus, ip, 0.5 h; for Inhibition of the uptake in vivo i.p. ED50 NA: 30 min
Protocol: (§1) The test method described in Europ. J. Pharmacol. 17, 107, 1972. This method involves the measurement of the decrease in the uptake of ^14C-5-hydroxytryptamine (^14C-5-HT) and ^3H- -noradrenaline (^3H-NA) in brain slices from mice after in vivo and in vitro administration of the test substance.
(§2) The test substances were administered intraperitoneally half an hour before the animals were killed. The midbrain was taken out, sliced and incubated in a mixture consisting of 0.2 nmole of ^14C-5-HT, 0.2 nmole of ^3H-NA and 11 µmole of glucose in 2 ml of Krebs Henseleit-buffer, pH 7.4 per 100 mg of brain slices. The incubation time was 5 minutes with 5 minutes of preincubation before the labelled amines were added. The slices were dissolved in Soluene and the amounts of radioactive amines taken u^p were determined by liquid scintillation. The doses producing 50 per cent decrease of the active uptake (ED50) of ^14C-5-HT and ^3H-NA were determined graphically from dose response curves. Active uptake is defined as that part of the radioactive uptake which is inhibited by a high concentration of cocaine.

[3] = system: neuronal uptake of 5-hydroxytryptamine; assay: Inhibition of the uptake of 14C-5-HT in brain slices after in vivo (i.p.) administration; parameters: species or system mice; settings: for ED50: Mus musculus, ip, 0.5 h; for Inhibition of the uptake in vivo i.p. ED50 5-HT: 30 min
Protocol: as §1, §2

[4] = biological target: neuronal uptake of noradrenaline (Mus musculus, UniProt O55192); assay: Inhibition of the uptake of 3H-NA in mouse midbrain slices, in vitro administration; type: cell-based; settings: slices from mouse brain (midbrain), 5 min preincubation with compound
neuronal uptake of noradrenaline (Mus musculus, UniProt O55192), sequence (O55192 whole entry): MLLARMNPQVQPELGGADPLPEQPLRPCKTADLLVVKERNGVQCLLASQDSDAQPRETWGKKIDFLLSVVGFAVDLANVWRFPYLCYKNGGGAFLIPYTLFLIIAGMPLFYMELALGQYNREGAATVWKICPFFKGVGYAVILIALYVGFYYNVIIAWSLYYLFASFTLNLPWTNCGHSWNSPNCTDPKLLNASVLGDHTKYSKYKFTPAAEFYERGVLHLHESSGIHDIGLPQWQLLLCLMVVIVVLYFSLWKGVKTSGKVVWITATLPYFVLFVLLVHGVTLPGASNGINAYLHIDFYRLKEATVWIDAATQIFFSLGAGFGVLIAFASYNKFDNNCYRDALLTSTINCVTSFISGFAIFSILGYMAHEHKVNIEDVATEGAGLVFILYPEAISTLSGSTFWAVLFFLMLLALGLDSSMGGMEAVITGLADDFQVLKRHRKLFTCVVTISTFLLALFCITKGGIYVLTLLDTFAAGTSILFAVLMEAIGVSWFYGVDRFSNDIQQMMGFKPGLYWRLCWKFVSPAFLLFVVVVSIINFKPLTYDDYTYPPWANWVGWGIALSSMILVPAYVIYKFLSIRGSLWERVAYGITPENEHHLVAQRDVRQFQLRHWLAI
Protocol: as §1
as §2, with “Active uptake is defined as that part of the radioactive uptake which is inhibited by a high concentration of cocaine.” left out
(§3) In the vitro administration method slices of mouse midbrain were preincubated for 5 minutes with solution of the compound to be tested and then incubated as described above. The concentration producing 50 per cent inhibition of the active uptake IC50 of ^14C-5-HT and 3-H-NA was determined graphically from dose response curves.

[5] = biological target: neuronal uptake of 5-hydroxytryptamine (Mus musculus, UniProt Q60857); assay: Inhibition of the uptake of 14C-5-HT in mouse midbrain slices, in vitro administration; type: cell-based; settings: slices from mouse brain (midbrain), 5 min preincubation with compound
neuronal uptake of 5-hydroxytryptamine (Mus musculus, UniProt Q60857), sequence (Q60857 whole entry): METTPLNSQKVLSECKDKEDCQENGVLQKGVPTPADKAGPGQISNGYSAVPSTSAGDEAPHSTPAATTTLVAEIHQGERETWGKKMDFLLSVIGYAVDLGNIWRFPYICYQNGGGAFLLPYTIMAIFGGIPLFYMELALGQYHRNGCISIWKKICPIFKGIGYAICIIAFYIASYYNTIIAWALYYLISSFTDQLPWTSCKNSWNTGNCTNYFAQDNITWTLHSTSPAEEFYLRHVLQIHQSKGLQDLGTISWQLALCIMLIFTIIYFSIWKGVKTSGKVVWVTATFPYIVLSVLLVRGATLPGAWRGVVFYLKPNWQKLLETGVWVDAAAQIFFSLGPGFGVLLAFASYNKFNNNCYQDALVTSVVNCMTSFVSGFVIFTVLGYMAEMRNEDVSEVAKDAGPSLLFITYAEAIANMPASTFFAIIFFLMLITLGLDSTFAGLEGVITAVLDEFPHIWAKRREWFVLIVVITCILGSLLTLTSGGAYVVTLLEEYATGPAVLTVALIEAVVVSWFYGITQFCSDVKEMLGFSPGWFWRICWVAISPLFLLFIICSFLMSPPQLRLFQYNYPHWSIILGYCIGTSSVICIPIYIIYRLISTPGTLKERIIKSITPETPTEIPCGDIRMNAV
Protocol: as §1
as §2, with “Active uptake is defined as that part of the radioactive uptake which is inhibited by a high concentration of cocaine.” left out
as §3

[6] = i.p. half an hour before the animals were killed, midbrain slices, read-out: Inhibition of the uptake in vivo i.p. ED50 NA
[7] = i.p. half an hour before the animals were killed, midbrain slices, read-out: Inhibition of the uptake in vivo i.p. ED50 5-HT
[8] = i.p. half an hour before the animals were killed, midbrain slices
[9] = i.p. half an hour before the animals were killed, midbrain slices, hydrochloride
[10] = read-out: Inhibition of the uptake in vivo i.p. ED50 NA, i.p. half an hour before the animals were killed, midbrain slices
[11] = read-out: Inhibition of the uptake in vivo i.p. ED50 5-HT, i.p. half an hour before the animals were killed, midbrain slices

Row | Molecule | ED50 [2, 6] [µmol/kg] | ED50 [3, 7] [µmol/kg] | Inhibition of the uptake in vivo i.p. ED50 NA [2, 8] [µmol/kg] | also measured
1 | COc1ccc(C(CC(C)N)c2ccccc2)cc1 (single isomer, unassigned) [CPK 160] |  |  |  | activity on uptake of noradrenaline and 5-hydroxytryptamine (assessment in words) [1]: pronounced non-selective activity
2 | CC(N)CC(c1ccccc1)c1ccc(F)cc1 (single isomer, unassigned) [CPK 163, (α)-3-(4-fluorophenyl)-1-methyl-3-phenylpropylamine oxalate] | 32 | 32 |  | 
3 | CC(N)CC(c1ccccc1)c1ccc(Br)cc1 (single isomer, unassigned) [CPK 165, (α)-3-(4-bromophenyl)-1-methyl-3-phenylaropylamine maleate] |  |  | 62 | Inhibition of the uptake in vivo i.p. ED50 5-HT [3, 8]: 61 µmol/kg
4 | CC(N)CC(c1ccccc1)c1ccc(F)cc1 (single isomer, unassigned) [CPK 170, (β)-3-(4-fluorophenyl)-1--methyl-3-phenylpropylamine hydrochloride] |  |  |  | Inhibition of the uptake in vivo i.p. ED50 NA [2, 9]: 34 µmol/kg; Inhibition of the uptake in vivo i.p. ED50 5-HT [3, 9]: 37 µmol/kg; activity on uptake of noradrenaline and 5-hydroxytryptamine (assessment in words) [1]: pronounced non-selective activity
5 | CC(N)CC(c1ccccc1)c1ccc(Br)cc1 (single isomer, unassigned) [CPK 171, (β)-3-(4-bromophenyl)-1-methyl-3-phenylpropylamine] |  |  | 29 | Inhibition of the uptake in vivo i.p. ED50 5-HT [3, 8]: 29 µmol/kg; activity on uptake of noradrenaline and 5-hydroxytryptamine (assessment in words) [1]: pronounced non-selective activity
6 | COc1ccc(C(CC(C)N)c2ccccc2)cc1 (single isomer, unassigned) [CPK 180, (α)-3-(4-methoxyphenyl)-1-methyl-3-phenylpropylamine] |  |  |  | ED50 [2, 10]: 78 µmol/kg; ED50 [3, 11]: 54 µmol/kg
7 | CC(N)CC(c1ccccc1)c1cccc(Br)c1 (single isomer, unassigned) [CPK 184, (β)-3-(3-bromophenyl)-1-methyl-3-phenylpropylamine] | 7.7 | 9.9 |  | activity on uptake of noradrenaline and 5-hydroxytryptamine (assessment in words) [1]: pronounced non-selective activity
8 | CC(N)CC(c1ccccc1)c1ccccc1Br (single isomer, unassigned) [CPK 185, (α)-3-(2-bromophenyl)-1-methyl-3-phenylpropylamine maleate] |  |  | 4.1 | Inhibition of the uptake in vivo i.p. ED50 5-HT [3, 8]: 5.7 µmol/kg; activity on uptake of noradrenaline and 5-hydroxytryptamine (assessment in words) [1]: pronounced selective activity on uptake of noradrenaline
9 | CC(N)CC(c1ccccc1)c1ccc(C(F)(F)F)cc1 (single isomer, unassigned) [CPK 195, (α)-1-methyl-3-(4-trifluoromethylphenyl)-3-phenylpropylamine maleate] |  |  |  | ED50 [2, 10]: > 98 µmol/kg; ED50 [3, 11]: 98 µmol/kg
10 | CC(N)CC(c1ccccc1)c1ccccc1Br (single isomer, unassigned) [CPK 197, (β)-3-(2-bromophenyl)-1-methyl-3--phenyl-propylamine maleate] |  |  | 28 | Inhibition of the uptake in vivo i.p. ED50 5-HT [3, 8]: >95 µmol/kg
11 | COc1ccc(C(CC(C)N)c2ccccc2)cc1 (single isomer, unassigned) [CPK 198, (β)-3-(4-methoxyphenyl)-1-methyl-3-phenylpropylamine] |  |  | 52 | Inhibition of the uptake in vivo i.p. ED50 5-HT [3, 8]: 33 µmol/kg; activity on uptake of noradrenaline and 5-hydroxytryptamine (assessment in words) [1]: pronounced selective activity on uptake of 5-hydroxytryptamine
12 | CC(N)CC(c1ccccc1)c1ccc(C(F)(F)F)cc1 (single isomer, unassigned) [CPK 199, (β)-1-methyl-3-(4-trifluoromethylphenyl)-3-phenylpropylamine maleate] |  |  | >98 | Inhibition of the uptake in vivo i.p. ED50 5-HT [3, 8]: >98 µmol/kg
13 | CC(N)CC(c1ccccc1)c1ccccc1 (stereo not shown) [3,3-diphenyl-1-methylpropylamine fumarate, reference compound] | 50 | 75 |  | 
14 | CC(N)CC(c1ccccc1)c1cccc(Br)c1 (stereo not shown) [CPK 155, 3-(3-bromophenyl)-1-methyl-3-phenylpropylamine] | 49 | > 95 |  | 
15 | CNC(C)CC(c1ccccc1)c1ccc(Br)cc1 (stereo not shown) [CPK 187, N, 1-dimethyl-3(4-bromophenyl)--3-phenylpropylamine] | > 98 | 98 |  | 
16 | CC(N)/C=C(\c1ccccc1)c1ccc(Br)cc1 (stereo not shown) [CPK 204, (E)-3-amino-1-(4-bromophenyl)-1-phenylbutene oxalate] | 48 | 40 |  | 
17 | CC(N)/C=C(\c1ccccc1)c1cccc(Br)c1 (stereo not shown) [CPK 215, (E)-3-amino-1-(3-bromophenyl)-1-phenylbutene] | 24 | 96 |  | 
18 | CC(N)/C=C(/c1ccccc1)c1cccc(Br)c1 (stereo not shown) [CPK 217, (Z)-3-amino-1-(3-bromophenyl)-1-phenylbutene] | 35 | 118 |  | 
19 | CC(N)/C=C(/c1ccc(Br)cc1)c1cccnc1 (stereo not shown) [CPP 179] | > 89 | 89 |  | 
20 | CN(C)CCCN1c2ccccc2CCc2ccc(Cl)cc21 [Chloroimipramine, reference compound] |  |  |  | IC50 [4]: 0.9 µM; ED50 [2, 10]: 150 µmol/kg
21 | CC(N)C=C(c1ccc(Br)cc1)c1ccc(Br)cc1 (stereo not shown) [FLA 608, 3-amino-1,1-di(4-bromophenyl)-1--butene hydrochloride] | 57 | 62 |  | 
22 | COc1ccc(C(=CC(C)N)c2ccc(OC)cc2)cc1.O=C(O)/C=C/C(=O)O (stereo not shown) [FLA 611, 3-amino-1,1-di(4-methoxyphenyl)--1-butene fumarate] | 108 | 63 |  | activity on uptake of noradrenaline and 5-hydroxytryptamine (assessment in words) [1]: pronounced selective activity on uptake of 5-hydroxytryptamine
23 | CC(N)C=C(c1ccc(F)cc1)c1ccc(F)cc1 (stereo not shown) [FLA 613, 3-amino-1,1-di-(4-fluorphenyl)-1-butene fumarate] | 106 | 38 |  | 
24 | COc1ccc(C(CC(C)N)c2ccc(OC)cc2)cc1 (stereo not shown) [FLA 614, 3,3-di-(4-methoxyphenyl)-1-methyl--propylamine fumarate] | 100 | 25 |  | 
25 | CC(N)CC(c1ccc(F)cc1)c1ccc(F)cc1.Cl (stereo not shown) [FLA 615, 3,3-di-(4-fluorophenyl)-1-methylpropylamine hydrochloride] | 57 | 29 |  | activity on uptake of noradrenaline and 5-hydroxytryptamine (assessment in words) [1]: pronounced selective activity on uptake of 5-hydroxytryptamine
26 | Cc1cccc(C(=CC(C)N)c2cccc(C)c2)c1 (stereo not shown) [FLA 618, 3-amino-1,1-di-(3-methylphenyl)-1-butene hydrochloride] | 56 | 93 |  | 
27 | Cc1cccc(C(CC(C)N)c2cccc(C)c2)c1 (stereo not shown) [FLA 619, 1,3', 3"-trimethyl-3,3-diphenyl-propylamine oxalate] | 48 | 116 |  | 
28 | CNCC=C(c1ccc(Br)cc1)c1cccnc1 [N-methyl-3-(4-bromophenyl)-3-(3-pyridyl)-allylamine E-isomer, N-methyl-3-(4-bromophenyl)-3-(3-pyridyl)-allylamine, reference compound] |  |  | 25 | 
29 | CNCC=C(c1ccc(Br)cc1)c1cccnc1 [N-methyl-3-(4-bromophenyl)-3-(3-pyridyl)-allylamine Z-isomer, N-methyl-3-(4-bromophenyl)-3-(3-pyridyl)-allylamine, reference compound] |  |  | >102 | Inhibition of the uptake in vivo i.p. ED50 5-HT [3, 8]: 19 µmol/kg
30 | (Z)-3-amino-1-(4-bromophenyl)-1--phenylbutene maleate [CPK 150] |  |  | 96 | IC50 [4]: 2 µM; IC50 [5]: 3 µM; Inhibition of the uptake in vivo i.p. ED50 5-HT [3, 8]: >96 µmol/kg
